Test systems include CCRF-CEM leukemia; NCI-H460 lung; COLO 205 colon; CAKI-1 renal; 786-0 renal; NCI/ADR-RES ovarian; U251 CNS; SF-295 CNS; DU-145 prostate; RXF 393 renal.
What all share (experiment): NCI-60 cell line screen, 48 h

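Test compounds were applied to cells in 96-well plates for 48 hours at 5 doses. GI50 is the concentration that inhibits growth by half. TGI is the concentration that stops growth completely.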 Where only a bound is given, the exact number is not on record here.

Regarding `CC(C)(C)CC(N)=O`, the TGI with CCRF-CEM leukemia, in the test with NCI-H460 lung, with COLO 205 colon, in the test with CAKI-1 renal, in the test on 786-0 renal and with NCI/ADR-RES ovarian was > 100 µM throughout. For the same compound, the TGI in the test on U251 CNS, in the test on SF-295 CNS and with DU-145 prostate was > 100 µM throughout.
In the case of `COc1ccc2nc3cc(Cl)ccc3c(Sc3ccc([N+](=O)[O-])cc3)c2c1`, the GI50 in the test with CCRF-CEM leukemia, in the test on NCI-H460 lung, in the test with COLO 205 colon, in the test with CAKI-1 renal, in the test with 786-0 renal and with RXF 393 renal was > 100 µM each time. Also, the GI50 in the test on U251 CNS and in the test on SF-295 CNS was > 100 µM throughout. Besides, the TGI in the test with CCRF-CEM leukemia, in the test on NCI-H460 lung, in the test with COLO 205 colon, in the test on CAKI-1 renal, in the test on 786-0 renal and with RXF 393 renal was > 100 µM each time. Moreover, the TGI with U251 CNS and in the test with SF-295 CNS was > 100 µM each time.
On to `COC(=O)C(Cc1nc2ccccc2nc1C)/C(=N\NC(N)=O)C(=O)Nc1cccc([N+](=O)[O-])c1` (centres undefined), for which the TGI in the test with CCRF-CEM leukemia, with NCI-H460 lung, with COLO 205 colon, with CAKI-1 renal, in the test with 786-0 renal and in the test on RXF 393 renal was > 100 µM throughout. Further, the TGI in the test on U251 CNS and in the test on SF-295 CNS was > 100 µM in each case.
For the compound `Cc1cc(C)nc(NS(=O)(=O)c2ccc(Nc3c4ccc(Cl)cc4nc4c(C(=O)NCCN(C)C)cccc34)cc2)n1`, the TGI in the test on CCRF-CEM leukemia, in the test on NCI-H460 lung, with COLO 205 colon, in the test on CAKI-1 renal, in the test on 786-0 renal and in the test with RXF 393 renal was > 100 µM throughout. For the same compound, the TGI in the test on U251 CNS and in the test on SF-295 CNS was > 100 µM each time.
With `Oc1cc2ccccc2c(-c2c(O)c(O)cc3ccccc23)c1O`, the GI50 is 0.554 µM in the test on CCRF-CEM leukemia; 0.145 µM in the test on NCI-H460 lung; 2.06 µM in the test on COLO 205 colon; 0.852 µM in the test with CAKI-1 renal; 0.201 µM in the test on 786-0 renal; 1.83 µM in the test on NCI/ADR-RES ovarian. For the same compound, the GI50 in the test on U251 CNS was 1.32 µM; in the test on SF-295 CNS, 0.77 µM; in the test on DU-145 prostate, 2.29 µM. The TGI with CCRF-CEM leukemia is > 27.7 µM; with NCI-H460 lung, 2.78 µM; with COLO 205 colon it was 8.95 µM; with CAKI-1 renal, 6.55 µM; in the test with 786-0 renal it was 1.07 µM; in the test with NCI/ADR-RES ovarian it was 12.4 µM. For the same compound, the TGI in the test with U251 CNS is 20.3 µM; in the test with SF-295 CNS it was > 29.6 µM; with DU-145 prostate it was 15.4 µM.
Regarding `COc1cc([N+](=O)[O-])c(OC)cc1-c1nc2sc(Cl)cn2c1/C=N/NC1=NCCN1`, the GI50 is 0.322 µM with NCI-H460 lung; 1.33 µM with COLO 205 colon; 12.9 µM in the test with CAKI-1 renal; 0.487 µM in the test on 786-0 renal; > 100 µM in the test on NCI/ADR-RES ovarian; 1.65 µM in the test with U251 CNS. Also, the GI50 with SF-295 CNS is 2.74 µM; with DU-145 prostate, 0.306 µM. Besides, the TGI in the test on NCI-H460 lung was > 100 µM; with COLO 205 colon it was 3.7 µM; in the test on CAKI-1 renal it was 51.7 µM; in the test with 786-0 renal it was 1.13 µM; in the test on NCI/ADR-RES ovarian, > 100 µM; in the test with U251 CNS it was 3.02 µM. In addition, the TGI in the test with SF-295 CNS is 52.8 µM; in the test with DU-145 prostate, 1.14 µM.
In the case of `C=C(C(=C)P(=S)(c1ccccc1)c1ccccc1)P(=S)(c1ccccc1)c1ccccc1`, the TGI in the test with CCRF-CEM leukemia, in the test with NCI-H460 lung, with COLO 205 colon, with CAKI-1 renal, in the test on 786-0 renal and in the test on RXF 393 renal was > 100 µM throughout. The TGI in the test with U251 CNS and in the test with SF-295 CNS was > 100 µM in each case.
Take `COc1ccc(C(=O)C(c2ccc(OCc3ccccc3)cc2)c2ccc(OCc3ccccc3)cc2)cc1`: the TGI in the test with CCRF-CEM leukemia, in the test with NCI-H460 lung, with COLO 205 colon, in the test with CAKI-1 renal, in the test on 786-0 renal and in the test on RXF 393 renal was > 100 µM throughout. For the same compound, the TGI in the test with U251 CNS and with SF-295 CNS was > 100 µM in each case.
As to `CN1CCN(C)C12C=CC=CC21CC1`, the TGI in the test on CCRF-CEM leukemia, in the test with NCI-H460 lung, with COLO 205 colon, in the test on CAKI-1 renal, in the test with 786-0 renal and with RXF 393 renal was > 100 µM each time. In addition, the TGI in the test with U251 CNS and with SF-295 CNS was > 100 µM throughout.
Regarding `Nc1cc(=O)n(-c2ccccc2)c(=S)n1-c1ccccc1`, the TGI with CCRF-CEM leukemia, with NCI-H460 lung, with COLO 205 colon, in the test with CAKI-1 renal, with 786-0 renal and in the test on RXF 393 renal was > 100 µM throughout. In addition, the TGI in the test with U251 CNS and in the test with SF-295 CNS was > 100 µM in each case.
`O=C(COC(=O)c1cccc2c(=O)c3ccccc3[nH]c12)Nc1ccc(C(=O)O)cc1`: the TGI with CCRF-CEM leukemia, with NCI-H460 lung, in the test on COLO 205 colon, with CAKI-1 renal, in the test on 786-0 renal and in the test with RXF 393 renal was > 100 µM each time. Also, the TGI with U251 CNS and in the test with SF-295 CNS was > 100 µM in each case.
In the case of `Clc1ccc(-c2c(C3=NCCCN3)nnn2-c2ccccc2)cc1`, the TGI in the test on CCRF-CEM leukemia, in the test with NCI-H460 lung, in the test on COLO 205 colon, with CAKI-1 renal, with 786-0 renal and with RXF 393 renal was > 100 µM in each case. Further, the TGI in the test with U251 CNS and in the test with SF-295 CNS was > 100 µM throughout.
Regarding `O=C1c2cccc(NCCN=Cc3ccccc3O)c2C(=O)c2c(NCCN=Cc3ccccc3O)cccc21`, the GI50 in the test on CCRF-CEM leukemia is 1.02 µM; in the test on NCI-H460 lung, 0.399 µM; in the test with COLO 205 colon it was 0.46 µM; in the test with CAKI-1 renal it was 0.953 µM; in the test on 786-0 renal, 0.865 µM; in the test on NCI/ADR-RES ovarian, 11.5 µM. Also, the values for the GI50 in the test on U251 CNS, with SF-295 CNS and in the test on DU-145 prostate were 0.521 µM, 0.409 µM and 0.364 µM, respectively. Also, the TGI with CCRF-CEM leukemia is 4.24 µM; in the test with NCI-H460 lung, 1.52 µM; in the test with COLO 205 colon, 2.18 µM; in the test on CAKI-1 renal, 4.82 µM; in the test on 786-0 renal, 3.76 µM; in the test on NCI/ADR-RES ovarian, 97.1 µM. For the same compound, the figures for the TGI in the test with U251 CNS, in the test with SF-295 CNS and in the test with DU-145 prostate were 4.62 µM, 1.88 µM and 1.55 µM, respectively.
On to `Clc1cc(Cl)cc(N2N=C(c3cccc(Nc4ccncc4)c3)CC2c2ccc3c(c2)OCO3)c1` (centres undefined), for which the GI50 in the test on CCRF-CEM leukemia is 2.72 µM; in the test with NCI-H460 lung it was 1.76 µM; in the test with COLO 205 colon, 1.87 µM; with CAKI-1 renal, 1.54 µM; in the test on 786-0 renal it was 1.69 µM; with SF-295 CNS it was 1.77 µM. For the same compound, the GI50 in the test on DU-145 prostate is 1.71 µM. The TGI stood at 18.4 µM with CCRF-CEM leukemia; 3.34 µM with NCI-H460 lung; 3.88 µM with COLO 205 colon; 2.9 µM in the test on CAKI-1 renal; 3.14 µM with 786-0 renal; 3.2 µM with SF-295 CNS. In the test with DU-145 prostate, this compound gave a TGI of 3.13 µM.
Regarding `NCC1OC(OC2C(CO)OC(OC3C(O)C(N)CC(N)C3OC3OC(CO)C(O)CC3N)C2O)C(N)C(O)C1OC1OC(CO)C(O)C(O)C1O` (centres undefined), the GI50 with CCRF-CEM leukemia, in the test with NCI-H460 lung, in the test with COLO 205 colon, with CAKI-1 renal, in the test with 786-0 renal and in the test with NCI/ADR-RES ovarian was > 50 µg/mL throughout. For the same compound, the GI50 in the test with U251 CNS, in the test on SF-295 CNS and with DU-145 prostate was > 50 µg/mL each time. The TGI with CCRF-CEM leukemia, with NCI-H460 lung, in the test with COLO 205 colon, with CAKI-1 renal, with 786-0 renal and in the test with NCI/ADR-RES ovarian was > 50 µg/mL in each case. For the same compound, the TGI in the test on U251 CNS, with SF-295 CNS and with DU-145 prostate was > 50 µg/mL in each case.
Consider `OCCN1CCN2C=C(C3CCCC4N(CCO)CCN34)CCC21` (centres undefined), for which the TGI in the test with CCRF-CEM leukemia is 36.3 µM; with NCI-H460 lung it was > 100 µM; with COLO 205 colon, > 100 µM; with CAKI-1 renal it was > 100 µM; with 786-0 renal, > 100 µM; in the test with RXF 393 renal, > 85 µM. For the same compound, the TGI in the test on U251 CNS and in the test with SF-295 CNS was > 100 µM in each case.
For the compound `NNC(=O)N/N=C1\C(=O)N(c2ccc(Cl)c(Cl)c2)C(=O)C(=O)C1c1nc2ccccc2s1` (centres undefined), the TGI in the test on CCRF-CEM leukemia, with NCI-H460 lung, with COLO 205 colon, in the test on CAKI-1 renal, in the test on 786-0 renal and in the test on RXF 393 renal was > 100 µM throughout. Moreover, the TGI with U251 CNS and in the test on SF-295 CNS was > 100 µM each time.

The values are drawn from PubChem BioAssay (NCI).
